Results reported in ChEMBL document CHEMBL5042515, “Design and Evaluation of a Novel Peptide-Drug Conjugate Covalently Targeting SARS-CoV-2 Papain-like Protease” (J Med Chem, 2022).
Activity calls are given as the source filed them. The rule behind the calls is not given here. *1 amine or outer side, *2 acyl side, *3 side chain or, on linkers, in order; H or OH if unused. Where a SMILES comes first, the peptide text is derived from it. Bridges are numbered along the chain shown (N, C = ends). [ ]: non-standard residue; d: D form. The star is where a group is joined. Met(S-mXyl) = C[S+](CC[C@H](N[*:1])C(=O)[*:2])Cc1cccc(C[*:3])c1; X1 = Cc1ccc(N*)cc1C(=O)NC(C)c1cccc2ccccc12

Test system: Severe acute respiratory syndrome coronavirus 2
Test: Covalent binding affinity to SARS-CoV-2 mutant PLpro Cys111S at 10 uM incubated for 2 hrs by SDS gel analysis

Which Activity does the source give for `Cc1ccc(NC(=O)CC[C@H](N)C(=O)N[C@H]2CC[S+](C)Cc3cccc(c3)CSC[C@@H](C(=O)O)NC(=O)CNC(=O)[C@H](CCCNC(=N)N)NC(=O)[C@H](CC(C)C)NC2=O)cc1C(=O)NC(C)c1cccc2ccccc12` (stereo partly specified) (H-E(X1)[Met(S-mXyl)]LRGC-OH; thioether 2-6) here?
The Activity was “inactive”.
